Data on one substance can be found in patent publication EP4385997A1 (priority 2022, dated 2024).

The subject of this assay is Xylella fastidiosa DSM10026/ATCC35879.

Where no end group is shown, it is not given here.

As to “KWKLFKKIEKVGQNIRDGIIKAGPAVAVVGQATQIAK-NH2 (C-terminus assumed) [Cecropin A BR001]”, the “MIC (µM)” value was 6.25 µM and the “MIC (µg mL^-1)” value amounted to 25 µg/mL.
